Columns and labels:
Test in all cases: normalised response (% of control), CellTiter-Glo; higher = more viable cells (100 = DMSO, 0 = benzethonium chloride kill control)
Details in all cases: incubation time: 72 h
BT-474 = test system: BT-474
Outline: (§1)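 In 384-well plates holding compound at 5 concentrations in 10-fold steps over a 10,000-fold range specific to each compound, breast cancer cell lines were seeded as 20 µl suspension and incubated 72 h. CellTox Green fluorescence was measured at 485/520 nm, after which CellTiter-Glo luminescence was measured following 10 min at room temperature. Plate signals were normalised to 0.1 % DMSO (100) and a positive kill control (0), and each value is the normalised signal at a single concentration.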

BT-549 = test system: BT-549
Outline: as §1

CAL-120 = test system: CAL-120
Outline: as §1

CAL-148 = test system: CAL-148
Outline: as §1

CAL-51 = test system: CAL-51
Outline: as §1

CAL-85-1 = test system: CAL-85-1
Outline: as §1

DU-4475 = test system: DU-4475
Outline: as §1

HCC1143 = test system: HCC1143
Outline: as §1

HCC1599 = test system: HCC1599
Outline: as §1

HCC1937 = test system: HCC1937
Outline: as §1

HDQ-P1 = test system: HDQ-P1
Outline: as §1

Hs578T = test system: Hs578T
Outline: as §1

MCF-10A = test system: MCF-10A
Outline: as §1

MDA-MB-231 = test system: MDA-MB-231
Outline: as §1

MDA-MB-436 = test system: MDA-MB-436
Outline: as §1

MDA-MB-453 = test system: MDA-MB-453
Outline: as §1

MDA-MB-468 = test system: MDA-MB-468
Outline: as §1

MFM-223 = test system: MFM-223
Outline: as §1

SK-BR-3 = test system: SK-BR-3
Outline: as §1

Row | Structure (SMILES) | normalised response (BT-474) [%] | normalised response (BT-549) [%] | normalised response (CAL-120) [%] | normalised response (CAL-148) [%] | normalised response (CAL-51) [%] | normalised response (CAL-85-1) [%] | normalised response (DU-4475) [%] | normalised response (HCC1143) [%] | normalised response (HCC1599) [%] | normalised response (HCC1937) [%] | normalised response (HDQ-P1) [%] | normalised response (Hs578T) [%] | normalised response (MCF-10A) [%] | normalised response (MDA-MB-231) [%] | normalised response (MDA-MB-436) [%] | normalised response (MDA-MB-453) [%] | normalised response (MDA-MB-468) [%] | normalised response (MFM-223) [%] | normalised response (SK-BR-3) [%]
1 | Cc1c(C(=O)Nc2ccc(N3C[C@@H](C)O[C@@H](C)C3)nc2)cccc1-c1ccc(OC(F)(F)F)cc1 [Erismodegib] (1 nM) | 93.9 | 93.8 | 99.2 | 91.7 | 88.2 | 97.8 | 97.5 | 93.8 | 102 | 96.1 | 94.1 | 91.6 | 84.4 | 99 | 85.3 | 96.1 | 99.8 | 96.7 | 91.3
2 | Cc1c(C(=O)Nc2ccc(N3C[C@@H](C)O[C@@H](C)C3)nc2)cccc1-c1ccc(OC(F)(F)F)cc1 [Erismodegib] (10 nM) | 92.9 | 99.6 | 91.7 | 94.6 | 127 | 95.2 | 101 | 93.4 | 104 | 96.3 | 95.5 | 101 | 86 | 99.2 | 91.9 | 81.8 | 86.6 | 91.9 | 69.9
3 | CC(C)C(=O)Nc1ccc([N+](=O)[O-])c(C(F)(F)F)c1 [Flutamide] (10 nM) | 101 | 96.4 | 97.6 | 92.1 | 126 | 96.2 | 102 | 98.6 | 105 | 102 | 98.4 | 98.6 | 103 | 95.7 | 99.8 | 109 | 96 | 99.6 | 124
4 | COc1cc2c(Oc3ccc(NC(=O)C4(C(=O)Nc5ccc(F)cc5)CC4)cc3F)ccnc2cc1OCCCN1CCOCC1 [Foretinib] (1 nM) | 104 | 98.4 | 99.7 | 101 | 106 | 94.8 | 100 | 102 | 94.3 | 95 | 97.7 | 97.4 | 102 | 99 | 99.2 | 108 | 99.4 | 102 | 97.6
5 | COc1cc(Nc2ncc(F)c(Nc3ccc4c(n3)N(COP(=O)(O)O)C(=O)C(C)(C)O4)n2)cc(OC)c1OC [Fostamatinib] (0.25 nM) | 97.2 | 107 | 107 | 93.3 | 83.5 | 99.3 | 96.2 | 100 | 111 | 106 | 99.1 | 99.2 | 103 | 101 | 110 | 99.4 | 97.4 | 94.9 | 98
6 | COc1cc(Nc2ncc(F)c(Nc3ccc4c(n3)N(COP(=O)(O)O)C(=O)C(C)(C)O4)n2)cc(OC)c1OC [Fostamatinib] (2.5 nM) | 103 | 102 | 105 | 97.7 | 73.5 | 99.7 | 93.8 | 102 | 87.7 | 99.6 | 110 | 102 | 97.7 | 96.2 | 92.9 | 104 | 96.7 | 98.8 | 92.7
7 | CC(C)NC[C@@H](C(=O)N1CCN(c2ncnc3c2[C@H](C)C[C@H]3O)CC1)c1ccc(Cl)cc1 [GDC-0068] (1 nM) | 99.3 | 97.7 | 95.9 | 95.3 | 71 | 98.9 | 99.9 | 97.3 | 100 | 102 | 99.8 | 101 | 106 | 103 | 96.9 | 102 | 94.1 | 98.9 | 103
8 | CCCc1cc(C)[nH]c(=O)c1CNC(=O)c1cc(-c2ccnc(N3CCN(C)CC3)c2)cc2c1cnn2C(C)C [GSK343] (1 nM) | 94.2 | 100 | 95.5 | 84.4 | 116 | 102 | 92.7 | 87.7 | 80.2 | 93.4 | 98 | 105 | 99.5 | 92.5 | 97.3 | 99.5 | 89 | 94.7 | 91.9
9 | CCCc1cc(C)[nH]c(=O)c1CNC(=O)c1cc(-c2ccnc(N3CCN(C)CC3)c2)cc2c1cnn2C(C)C [GSK343] (10 nM) | 97.2 | 96.5 | 97 | 80.2 | 81.4 | 91.6 | 94 | 104 | 103 | 103 | 97.6 | 101 | 103 | 91.7 | 91.1 | 94.2 | 87.4 | 93.3 | 109
10 | NC(=O)NO [Hydroxyurea] (100 nM) | 99.5 | 97.7 | 97.8 | 102 | 89.7 | 99.8 | 101 | 104 | 94.1 | 96 | 97.3 | 102 | 104 | 98.5 | 96.3 | 112 | 101 | 108 | 93.5
11 | COc1cc2c(cc1-c1c(C)noc1C)ncc1[nH]c(=O)n([C@H](C)c3ccccn3)c12 [I-BET151] (1 nM) | 96.7 | 99.7 | 101 | 104 | 81.1 | 103 | 103 | 105 | 103 | 96.6 | 106 | 101 | 109 | 99.5 | 98.5 | 102 | 95.9 | 97.8 | 97.8
12 | CC(C)n1nc(-c2ccc3oc(N)nc3c2)c2c(N)ncnc21 [INK128] (0.1 nM) | 90.8 | 93.9 | 91 | 92.2 | 106 | 96.6 | 90.2 | 86.4 | 94.7 | 89.1 | 87.9 | 96.3 | 90.6 | 92.1 | 79.1 | 101 | 93.3 | 89.8 | 96
13 | CC(C)n1nc(-c2ccc3oc(N)nc3c2)c2c(N)ncnc21 [INK128] (1 nM) | 88.9 | 89 | 92.2 | 93.2 | 116 | 96.7 | 94.1 | 94.5 | 100 | 96.9 | 95.8 | 98.9 | 96.2 | 95.9 | 96.5 | 88.3 | 93.6 | 90.1 | 85.9
14 | O=NN(CCCl)C(=O)NC1CCCCC1 [Lomustine] (10 nM) | 105 | 98.3 | 98.3 | 98.6 | 120 | 95 | 102 | 103 | 83.8 | 102 | 102 | 108 | 107 | 99.4 | 95.2 | 106 | 92.5 | 104 | 90.8
15 | O=C(O)CC[C@H]1CC[C@@](c2cc(F)ccc2F)(S(=O)(=O)c2ccc(Cl)cc2)CC1 [MK-0752] (1 nM) | 103 | 93 | 102 | 107 | 87.3 | 102 | 104 | 99.5 | 97.5 | 98.7 | 95.6 | 104 | 113 | 102 | 101 | 111 | 98.5 | 112 | 102
16 | NC1(c2ccc(-c3nc4ccn5c(=O)[nH]nc5c4cc3-c3ccccc3)cc2)CCC1 [MK-2206] (1 nM) | 111 | 92.9 | 99.2 | 112 | 80.6 | 95.9 | 104 | 103 | 105 | 92.6 | 96.5 | 96.5 | 106 | 103 | 104 | 100 | 101 | 109 | 112
17 | NC(=O)c1cccc2cn(-c3ccc([C@@H]4CCCNC4)cc3)nc12 [MK-4827] (10 nM) | 110 | 101 | 107 | 108 | 125 | 106 | 104 | 107 | 104 | 96.9 | 93.7 | 98.4 | 114 | 101 | 107 | 105 | 98.6 | 104 | 83.4
18 | N[C@@H](Cc1ccc(N(CCCl)CCCl)cc1)C(=O)O [Melphalan] (1.25 nM) | 98.7 | 97.8 | 100 | 93.2 | 114 | 96.5 | 95.5 | 98.7 | 116 | 103 | 106 | 109 | 104 | 100 | 109 | 93.3 | 91.7 | 95.1 | 96.3
19 | N[C@@H](Cc1ccc(N(CCCl)CCCl)cc1)C(=O)O [Melphalan] (12.5 nM) | 103 | 100 | 101 | 96.2 | 75.2 | 99.4 | 99.3 | 95.3 | 133 | 102 | 103 | 104 | 101 | 102 | 103 | 104 | 95.4 | 99.5 | 95
20 | O=C(c1cc(Cc2n[nH]c(=O)c3ccccc23)ccc1F)N1CCN(C(=O)C2CC2)CC1 [Olaparib] (10 nM) | 97.1 | 98.2 | 93.2 | 98.9 | 110 | 108 | 102 | 95.6 | 113 | 101 | 96.2 | 98.6 | 99.5 | 90.2 | 91.8 | 97.8 | 101 | 93 | 100
